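Exposure lasted 48 hours, with cells grown in 96-well plates and compounds tested at five concentrations. The concentration for 50% growth inhibition is given as GI50. TGI: total growth inhibition.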
Assays:
Assay in all cases: inhibition of tumour cell growth, NCI panel, 48 h
M14 melanoma = test system: M14 melanoma
786-0 renal = test system: 786-0 renal
SK-MEL-5 melanoma = test system: SK-MEL-5 melanoma
OVCAR-4 ovarian = test system: OVCAR-4 ovarian
COLO 205 colon = test system: COLO 205 colon
A549 NSCLC = test system: A549 NSCLC
MDA-MB-231 breast = test system: MDA-MB-231 breast
SF-295 CNS = test system: SF-295 CNS
MDA-MB-435 = test system: MDA-MB-435
SN12C renal = test system: SN12C renal
MALME-3M melanoma = test system: MALME-3M melanoma
T-47D breast = test system: T-47D breast
TK-10 renal = test system: TK-10 renal
CAKI-1 renal = test system: CAKI-1 renal
SR leukemia = test system: SR leukemia
U251 CNS = test system: U251 CNS
OVCAR-3 ovarian = test system: OVCAR-3 ovarian
LOX IMVI melanoma = test system: LOX IMVI melanoma
OVCAR-8 ovarian = test system: OVCAR-8 ovarian
SF-539 CNS = test system: SF-539 CNS
K-562 leukemia = test system: K-562 leukemia
HCT-15 colon = test system: HCT-15 colon
NCI-H23 lung = test system: NCI-H23 lung
SK-OV-3 ovarian = test system: SK-OV-3 ovarian
KM12 colon = test system: KM12 colon
RPMI-8226 leukemia = test system: RPMI-8226 leukemia
HS 578T breast = test system: HS 578T breast
OVCAR-5 ovarian = test system: OVCAR-5 ovarian
UACC-257 melanoma = test system: UACC-257 melanoma
A498 renal = test system: A498 renal
NCI/ADR-RES ovarian = test system: NCI/ADR-RES ovarian
SW-620 colon = test system: SW-620 colon
HCC-2998 colon = test system: HCC-2998 colon
HCT-116 colon = test system: HCT-116 colon
NCI-H226 lung = test system: NCI-H226 lung
SK-MEL-2 melanoma = test system: SK-MEL-2 melanoma
NCI-H460 lung = test system: NCI-H460 lung
PC-3 prostate = test system: PC-3 prostate
SK-MEL-28 melanoma = test system: SK-MEL-28 melanoma
CCRF-CEM leukemia = test system: CCRF-CEM leukemia
MCF7 breast = test system: MCF7 breast
SNB-75 CNS = test system: SNB-75 CNS
UACC-62 melanoma = test system: UACC-62 melanoma
BT-549 breast = test system: BT-549 breast
IGROV1 ovarian = test system: IGROV1 ovarian
MOLT-4 leukemia = test system: MOLT-4 leukemia
NCI-H522 lung = test system: NCI-H522 lung
UO-31 renal = test system: UO-31 renal
SF-268 CNS = test system: SF-268 CNS
HOP-92 NSCLC = test system: HOP-92 NSCLC
SNB-19 CNS = test system: SNB-19 CNS
HT29 colon = test system: HT29 colon
RXF 393 renal = test system: RXF 393 renal
ACHN renal = test system: ACHN renal
DU-145 prostate = test system: DU-145 prostate
HOP-62 NSCLC = test system: HOP-62 NSCLC

Question: How did the GI50 (M14 melanoma) turn out when `Cc1ccc(C(=O)Nc2ccc(Oc3cc4cnn(C)c4cc3-c3cn[nH]c3)c(F)c2)c(=O)n1-c1ccc(F)cc1` was run?
Answer: 2.96 µM

Question: And the TGI (M14 melanoma)?
Answer: > 100 µM

Question: What about the GI50 (786-0 renal) of the same compound?
Answer: > 100 µM

Question: And the TGI (786-0 renal)?
Answer: > 100 µM

Question: And the GI50 (SK-MEL-5 melanoma)?
Answer: 5.59 µM

Question: What about the TGI (SK-MEL-5 melanoma) of the same compound?
Answer: > 100 µM

Question: And the GI50 (OVCAR-4 ovarian)?
Answer: > 100 µM

Question: And the TGI (OVCAR-4 ovarian)?
Answer: > 100 µM

Question: And the GI50 (COLO 205 colon)?
Answer: 5.36 µM

Question: And the TGI (COLO 205 colon)?
Answer: > 100 µM

Question: And the GI50 (A549 NSCLC)?
Answer: 7.6 µM

Question: What about the TGI (A549 NSCLC) of the same compound?
Answer: > 100 µM

Question: What about the GI50 (MDA-MB-231 breast) of the same compound?
Answer: 10.2 µM

Question: And the TGI (MDA-MB-231 breast)?
Answer: > 78.1 µM

Question: And the GI50 (SF-295 CNS)?
Answer: 0.0856 µM

Question: What about the TGI (SF-295 CNS) of the same compound?
Answer: > 100 µM

Question: And the GI50 (MDA-MB-435)?
Answer: 3.23 µM

Question: What about the TGI (MDA-MB-435) of the same compound?
Answer: > 100 µM

Question: And the GI50 (SN12C renal)?
Answer: 3.08 µM

Question: What about the TGI (SN12C renal) of the same compound?
Answer: > 100 µM

Question: What about the GI50 (MALME-3M melanoma) of the same compound?
Answer: 3.35 µM

Question: And the TGI (MALME-3M melanoma)?
Answer: > 100 µM

Question: What about the GI50 (T-47D breast) of the same compound?
Answer: 7.28 µM

Question: What about the TGI (T-47D breast) of the same compound?
Answer: > 78.8 µM

Question: And the GI50 (TK-10 renal)?
Answer: 1.95 µM

Question: And the TGI (TK-10 renal)?
Answer: 35.1 µM

Question: And the GI50 (CAKI-1 renal)?
Answer: 3.25 µM

Question: And the TGI (CAKI-1 renal)?
Answer: > 100 µM

Question: And the GI50 (SR leukemia)?
Answer: > 38.8 µM

Question: And the TGI (SR leukemia)?
Answer: > 100 µM

Question: And the GI50 (U251 CNS)?
Answer: 32.9 µM

Question: What about the TGI (U251 CNS) of the same compound?
Answer: > 100 µM

Question: And the GI50 (OVCAR-3 ovarian)?
Answer: > 100 µM

Question: And the TGI (OVCAR-3 ovarian)?
Answer: > 100 µM

Question: What about the GI50 (LOX IMVI melanoma) of the same compound?
Answer: 2.46 µM

Question: What about the TGI (LOX IMVI melanoma) of the same compound?
Answer: > 100 µM

Question: What about the GI50 (OVCAR-8 ovarian) of the same compound?
Answer: 48.8 µM

Question: And the TGI (OVCAR-8 ovarian)?
Answer: > 100 µM

Question: And the GI50 (SF-539 CNS)?
Answer: 1.37 µM

Question: What about the TGI (SF-539 CNS) of the same compound?
Answer: > 100 µM

Question: And the GI50 (K-562 leukemia)?
Answer: 5.75 µM

Question: And the TGI (K-562 leukemia)?
Answer: > 100 µM

Question: What about the GI50 (HCT-15 colon) of the same compound?
Answer: 6.1 µM

Question: And the TGI (HCT-15 colon)?
Answer: > 100 µM

Question: What about the GI50 (NCI-H23 lung) of the same compound?
Answer: 8.97 µM

Question: What about the TGI (NCI-H23 lung) of the same compound?
Answer: > 100 µM

Question: And the GI50 (SK-OV-3 ovarian)?
Answer: > 100 µM

Question: What about the TGI (SK-OV-3 ovarian) of the same compound?
Answer: > 100 µM

Question: What about the GI50 (KM12 colon) of the same compound?
Answer: 0.0304 µM

Question: And the TGI (KM12 colon)?
Answer: > 100 µM

Question: What about the GI50 (RPMI-8226 leukemia) of the same compound?
Answer: > 48 µM

Question: And the TGI (RPMI-8226 leukemia)?
Answer: > 100 µM

Question: What about the GI50 (HS 578T breast) of the same compound?
Answer: 7.35 µM

Question: And the TGI (HS 578T breast)?
Answer: > 100 µM

Question: What about the GI50 (OVCAR-5 ovarian) of the same compound?
Answer: 10.9 µM

Question: What about the TGI (OVCAR-5 ovarian) of the same compound?
Answer: > 100 µM

Question: What about the GI50 (UACC-257 melanoma) of the same compound?
Answer: 6.8 µM

Question: What about the TGI (UACC-257 melanoma) of the same compound?
Answer: > 100 µM

Question: And the GI50 (A498 renal)?
Answer: 0.404 µM

Question: What about the TGI (A498 renal) of the same compound?
Answer: > 100 µM

Question: And the GI50 (NCI/ADR-RES ovarian)?
Answer: > 94.1 µM

Question: And the TGI (NCI/ADR-RES ovarian)?
Answer: > 100 µM

Question: And the GI50 (SW-620 colon)?
Answer: > 88.9 µM

Question: What about the TGI (SW-620 colon) of the same compound?
Answer: > 100 µM

Question: And the GI50 (HCC-2998 colon)?
Answer: > 100 µM

Question: And the TGI (HCC-2998 colon)?
Answer: > 100 µM

Question: And the GI50 (HCT-116 colon)?
Answer: 6.31 µM

Question: What about the TGI (HCT-116 colon) of the same compound?
Answer: > 100 µM

Question: What about the GI50 (NCI-H226 lung) of the same compound?
Answer: 2.16 µM

Question: What about the TGI (NCI-H226 lung) of the same compound?
Answer: > 100 µM

Question: And the GI50 (SK-MEL-2 melanoma)?
Answer: 18.1 µM

Question: What about the TGI (SK-MEL-2 melanoma) of the same compound?
Answer: > 100 µM

Question: What about the GI50 (NCI-H460 lung) of the same compound?
Answer: 8.12 µM

Question: And the TGI (NCI-H460 lung)?
Answer: > 100 µM

Question: What about the GI50 (PC-3 prostate) of the same compound?
Answer: 16.3 µM

Question: What about the TGI (PC-3 prostate) of the same compound?
Answer: > 100 µM

Question: What about the GI50 (SK-MEL-28 melanoma) of the same compound?
Answer: 3.54 µM

Question: What about the TGI (SK-MEL-28 melanoma) of the same compound?
Answer: > 100 µM

Question: What about the GI50 (CCRF-CEM leukemia) of the same compound?
Answer: > 100 µM

Question: What about the TGI (CCRF-CEM leukemia) of the same compound?
Answer: > 100 µM

Question: What about the GI50 (MCF7 breast) of the same compound?
Answer: 3.2 µM

Question: What about the TGI (MCF7 breast) of the same compound?
Answer: > 100 µM

Question: And the GI50 (SNB-75 CNS)?
Answer: 5.61 µM

Question: And the TGI (SNB-75 CNS)?
Answer: > 100 µM

Question: And the GI50 (UACC-62 melanoma)?
Answer: 2.08 µM

Question: What about the TGI (UACC-62 melanoma) of the same compound?
Answer: > 100 µM

Question: What about the GI50 (BT-549 breast) of the same compound?
Answer: 7.05 µM

Question: And the TGI (BT-549 breast)?
Answer: > 100 µM

Question: What about the GI50 (IGROV1 ovarian) of the same compound?
Answer: > 100 µM

Question: What about the TGI (IGROV1 ovarian) of the same compound?
Answer: > 100 µM

Question: And the GI50 (MOLT-4 leukemia)?
Answer: > 100 µM

Question: What about the TGI (MOLT-4 leukemia) of the same compound?
Answer: > 100 µM

Question: And the GI50 (NCI-H522 lung)?
Answer: 32 µM

Question: And the TGI (NCI-H522 lung)?
Answer: > 100 µM

Question: And the GI50 (UO-31 renal)?
Answer: > 100 µM

Question: And the TGI (UO-31 renal)?
Answer: > 100 µM

Question: And the GI50 (SF-268 CNS)?
Answer: 7.21 µM

Question: What about the TGI (SF-268 CNS) of the same compound?
Answer: > 100 µM

Question: What about the GI50 (HOP-92 NSCLC) of the same compound?
Answer: 2.34 µM

Question: What about the TGI (HOP-92 NSCLC) of the same compound?
Answer: > 100 µM

Question: What about the GI50 (SNB-19 CNS) of the same compound?
Answer: > 100 µM

Question: And the TGI (SNB-19 CNS)?
Answer: > 100 µM

Question: And the GI50 (HT29 colon)?
Answer: 3.54 µM

Question: What about the TGI (HT29 colon) of the same compound?
Answer: > 100 µM

Question: What about the GI50 (RXF 393 renal) of the same compound?
Answer: 2.23 µM

Question: And the TGI (RXF 393 renal)?
Answer: > 100 µM

Question: What about the GI50 (ACHN renal) of the same compound?
Answer: 2.9 µM

Question: What about the TGI (ACHN renal) of the same compound?
Answer: > 100 µM

Question: What about the GI50 (DU-145 prostate) of the same compound?
Answer: > 50 µM

Question: And the TGI (DU-145 prostate)?
Answer: > 100 µM

Question: And the GI50 (HOP-62 NSCLC)?
Answer: > 37.9 µM

Question: What about the TGI (HOP-62 NSCLC) of the same compound?
Answer: > 100 µM

Reference: PubChem BioAssay (NCI)
